Laboratory results taken from patent US20230045902A1, “COMPOSITION FOR REINFORCING FUNCTION OF STEM CELL” (SCM LIFE SCIENCE CO., LTD., priority 2020, published 2023).

Columns and labels:
Assay type in all cases: cell-based
IFN-γ = IFN-γ secretion in PHA-activated T-cells co-cultured with treated mesenchymal stem cells (IFN-γ kit); details: MSC treated 24 hours (Table 1 concentrations), co-cultured 3 days with PHA-activated T-cells; FIG. 3
Description: As a control group, mesenchymal stem cells that were not treated with the test substance were used.

TSG6 and IDO = assay: Concentration setting of IL-1β in MSC by expression of TSG6 and IDO; details: treated in MSC
Procedure: IL-1β, IFN-α and vitamin B6 were selected as candidate substances, and concentrations for function-enhancing were set. When IL-1β was treated in MSC, it was confirmed that the lowest effective concentration capable of increasing the expression of TSG6 and IDO was 20 ng/ml, and this was set as the standard.

[1] = test system: indoleamine 2,3-dioxygenase (IDO); assay: IDO expression change in mesenchymal stem cells by qRT-PCR; details: MSC treated 24 hours, Table 1 concentrations; FIG. 6
Procedure: At 37° C. and 5% CO2 incubator, mesenchymal stem cells in storage state (stored in LN2 tank) were thawed and cultured. At this time, they were cultured in a medium (DMEM, alpha-MEM) containing 10% FBS or 4% hPL. Cells were cultured until confluence reached about 80%. After seeding the cultured mesenchymal stem cells in a 100 mm dish, a candidate material for enhancing the mesenchymal stem cell function was selected.
The selected 20 ng/ml of IL-1β and vitamin B6 and IFN-α at different concentrations were combined, and the effect was confirmed by the change in indoleamine 2,3-dioxygenase (IDO) expression. IDO is known as an immunomodulatory factor that suppresses the proliferation of immune cells such as T cells by changing tryptophan, which is essential for T cell proliferation, into kynurenine. After culturing stem cells, total RNA was isolated using TRIzol (Invitrogen), and cDNA was synthesized from total RNA using PrimeScript™ reagent Kit with gDNA Eraser (TaKaRa), followed by qRT-PCR.
The selected candidate substances and their concentration combinations are shown in Table 1, and they were treated to mesenchymal stem cells for 24 hours, and the function-enhancing effect was confirmed. […]

[2] = test system: Inducible costimulatory ligand (ICOSL); assay: ICOSL expression change in mesenchymal stem cells by qRT-PCR; details: MSC treated 24 hours, Table 1 concentrations; FIG. 4
Procedure: Inducible costimulatory ligand (ICOSL) is known to inhibit activated T cells by inducing regulatory T cells. Since the function-enhancing effect of the mesenchymal stem cells according to the treatment with the experimental group was confirmed in Example 1.1, an experiment was performed to additionally confirm whether the treatment with the experimental group induces inflammation and immune regulation ability of the mesenchymal stem cells. After culturing stem cells as in Experimental Example 1, total RNA was isolated using TRIzol (Invitrogen), and then cDNA was synthesized from total RNA using PrimeScript™ reagent Kit with gDNA Eraser (TaKaRa) and qRT-PCR was performed. Through this, the expression change of ICOSL, which is a representative factor of inflammation and immune regulation, was confirmed, and the results are shown in FIG. 4.

Galectin 1 = Galectin 1 expression change in mesenchymal stem cells by qRT-PCR; details: MSC treated 24 hours, Table 1 concentrations; FIG. 5
Description: 1.3. Confirmation of Change in Galectin 1 Expression According to the Treatment with the Experimental Group Galectin 1 is known as a stem cell potency marker closely related to the high efficacy of stem cells, and it is known that the more the expression increases, the stronger the stem cell function and efficacy. Therefore, in order to further confirm whether the treatment with the experimental group induces the inflammation and immune regulation ability of the mesenchymal stem cells, an experiment was performed to confirm the expression of Galectin 1. After culturing stem cells as in Experimental Example 1, total RNA was isolated using TRIzol (Invitrogen), and then cDNA was synthesized from total RNA using PrimeScript™ reagent Kit with gDNA Eraser (TaKaRa) and qRT-PCR was performed. Using this, a change in the expression of Galectin 1, an indicator of stem cell efficacy, was confirmed, and the result is shown in FIG. 5.

Compound	change in IFN-γ secretion compared to the untreated control group (IFN-γ)	lowest effective concentration capable of increasing the expression of TSG6 and IDO (TSG6 and IDO) [ng/mL]	IDO expression change [1]	expression of ICOSL [2]	expression of Galectin 1 (Galectin 1)
Interleukin 1 beta (IL-1β)	not significant	20	did not show a distinct expression change	increased	increased
interferon alpha (IFN-α)	not significant	–	–	did not show a distinct increase	–
Cc1ncc(CO)c(CO)c1O.Cl [vitamin B6]	not significant	–	did not show a distinct expression change	did not show a distinct increase	did not show a distinct increase
